Measured values published in ChEMBL document CHEMBL3885861, “Open TG-GATES”.

Organism: Rattus norvegicus
Assay: Open TG-GATES - Regimen: Daily Repeat
Format: toxicity, organism-based, Sprague-Dawley
Set-up: regimen Daily Repeat, gender Male, age 6 weeks
Conditions: in vivo, po, route gavage; for Bas / Eos / Fbg / Lym / MCH / MCHC / MCV / Mono / Neu / PT / Plat / RBC / Ret / WBC: tissue Blood; for KIDNEY_L / KIDNEY_R / KIDNEY_TOTAL: tissue Kidney
[1] = 0 mg/kg, […], tissue Plasma, dose level Control, time 28 day
[2] = 3 mg/kg, 72 h, dose level Low, time 3 day
[3] = 3 mg/kg, 72 h, tissue Plasma, dose level Low, time 3 day
[4] = 3 mg/kg, […], dose level Low, time 7 day
[5] = 3 mg/kg, […], dose level Low, time 14 day
[6] = 3 mg/kg, […], dose level Low, time 28 day
[7] = 3 mg/kg, […], tissue Plasma, dose level Low, time 7 day
[8] = 3 mg/kg, […], tissue Plasma, dose level Low, time 14 day

For `Cc1cnc(NC(=O)C2=C(O)c3ccccc3S(=O)(=O)N2C)s1` [MELOXICAM], the LDH [1] was 187.8 IU/L, the Na [1] was 140.8 meq/L and the RALB [1] was 3.5 g/dL. For the same compound, the TBIL [1] was 0.2 mg/dL, the TC [1] was 69 mg/dL and the TG [1] was 141.2 mg/dL. It also gave a TP [1] of 5.9 g/dL, a gamma-GTP [1] of 0.5 IU/L and a TERMINAL_BW [2] of 246.9 g. The Bas [2] was 0.8%, the Eos [2] was 0.8% and the Fbg [2] was 225.2 mg/dL. It also gave a Lym [2] of 83%, an MCH [2] of 21.6 pg and an MCHC [2] of 34.6%. For the same compound, the MCV [2] was 62.5 fL, the Mono [2] was 2.2% and the Neu [2] was 13%. The PT [2] was 11.8 s, the Plat [2] was 121.1 x10_4/uL and the RBC [2] was 639.2 x10_4/ul. The Ret [2] was 5.7%, the KIDNEY_L [2] was 1.1 g and the KIDNEY_R [2] was 1.1 g. The KIDNEY_TOTAL [2] was 2.2 g, the ALP [3] was 950.2 IU/L and the ALT [3] was 35.6 IU/L. For the same compound, the AST [3] was 62.4 IU/L, the BUN [3] was 15.2 mg/dL and the CRE [3] was 0.4 mg/dL. The DBIL [3] was 0.1 mg/dL, the IP [3] was 7.6 mg/dL and the K [3] was 4.1 meq/L. For the same compound, the LDH [3] was 195.6 IU/L, the Na [3] was 141 meq/L and the RALB [3] was 3.5 g/dL. For the same compound, the TBIL [3] was 0.2 mg/dL, the TC [3] was 69.8 mg/dL and the TG [3] was 140.8 mg/dL. It also gave a TP [3] of 5.6 g/dL, a gamma-GTP [3] of 0.8 IU/L and a TERMINAL_BW [4] of 277.7 g. For the same compound, the TERMINAL_BW [5] was 332.6 g, the TERMINAL_BW [6] was 420.4 g and the Bas [4] was 1%. It also gave an Eos [4] of 1%, a Fbg [4] of 226.4 mg/dL and a Lym [4] of 81.6%. For the same compound, the MCH [4] was 21.9 pg, the MCHC [4] was 34.7% and the MCV [4] was 63.3 fL. The Mono [4] was 2.4%, the Neu [4] was 14.6% and the PT [4] was 11.9 s. The Plat [4] was 124.9 x10_4/uL, the RBC [4] was 637.8 x10_4/ul and the Ret [4] was 5.5%. It also gave a WBC [4] of 129.6 x10_2/uL, a Bas [5] of 1% and an Eos [5] of 1%. The Fbg [5] was 222.4 mg/dL, the Lym [5] was 80% and the MCH [5] was 20.4 pg. It also gave an MCHC [5] of 33.6%, an MCV [5] of 60.7 fL and a Mono [5] of 2.6%. For the same compound, the Neu [5] was 15.2%, the PT [5] was 11.6 s and the Plat [5] was 118.9 x10_4/uL. It also gave an RBC [5] of 689.2 x10_4/ul, a Ret [5] of 4.1% and a WBC [5] of 124.4 x10_2/uL. The Bas [6] was 1%, the Eos [6] was 1% and the Fbg [6] was 213.8 mg/dL. For the same compound, the Lym [6] was 81.2%, the MCH [6] was 18.9 pg and the MCHC [6] was 34.2%. It also gave an MCV [6] of 55.2 fL, a Mono [6] of 2.2% and a Neu [6] of 13.4%. It also gave a PT [6] of 11.7 s, a Plat [6] of 115.1 x10_4/uL and an RBC [6] of 790 x10_4/ul. For the same compound, the Ret [6] was 2.5%, the WBC [6] was 131 x10_2/uL and the KIDNEY_L [4] was 1.3 g. For the same compound, the KIDNEY_R [4] was 1.2 g, the KIDNEY_TOTAL [4] was 2.5 g and the KIDNEY_L [5] was 1.4 g. The KIDNEY_R [5] was 1.3 g, the KIDNEY_TOTAL [5] was 2.7 g and the KIDNEY_L [6] was 1.5 g. It also gave a KIDNEY_R [6] of 1.5 g, a KIDNEY_TOTAL [6] of 3 g and an ALP [7] of 971.8 IU/L. The ALT [7] was 37 IU/L, the AST [7] was 68.4 IU/L and the BUN [7] was 15.2 mg/dL. For the same compound, the CRE [7] was 0.4 mg/dL, the DBIL [7] was 0.098 mg/dL and the IP [7] was 7.4 mg/dL. For the same compound, the K [7] was 4.1 meq/L, the LDH [7] was 186.8 IU/L and the Na [7] was 141.8 meq/L. For the same compound, the RALB [7] was 3.4 g/dL, the TBIL [7] was 0.2 mg/dL and the TC [7] was 72.6 mg/dL. For the same compound, the TG [7] was 128.8 mg/dL, the TP [7] was 5.7 g/dL and the gamma-GTP [7] was 1.2 IU/L. For the same compound, the ALP [8] was 820.8 IU/L, the AST [8] was 75.2 IU/L and the BUN [8] was 17 mg/dL. For the same compound, the CRE [8] was 0.5 mg/dL, the DBIL [8] was 0.1 mg/dL and the GLC [8] was 214.6 mg/dL. For the same compound, the IP [8] was 7.4 mg/dL, the K [8] was 4 meq/L and the LDH [8] was 223.6 IU/L. For the same compound, the Na [8] was 141.4 meq/L, the RALB [8] was 3.5 g/dL and the TBIL [8] was 0.2 mg/dL. For the same compound, the TC [8] was 72.6 mg/dL, the TG [8] was 141.8 mg/dL and the TP [8] was 5.9 g/dL. The gamma-GTP [8] was 1 IU/L.
